Measurements: article PMC6272327, “Discovery of Metal Ions Chelator Quercetin Derivatives with Potent Anti-HCV Activities” (Molecules, 2015)
Like-named read-outs stand apart in the source and are kept apart here.

Columns and labels:
[1] = test system: HCV infectious virus J399EM; assay: Anti-HCV assay in authentic HCV infection/replication system (J399EM EGFP reporter virus) in Huh7.5.1 cells; assay type: cell-based, hepatitis C virus (JFH1-derived, genotype 2a); conditions: for EC50: Hepatitis C virus, Huh-7.5.1, 72 h; for SI (selectivity index): ratio of CC50 to EC50, Huh7.5.1 cells
Protocol: (§1) The inhibition of HCV by all synthesized quercetin derivatives was evaluated following a previously reported procedure. All newly synthesized compounds were tested in authentic HCV infection/replication system in the human hepatoma cell lines Huh7.5.1 using mycophenolic acid (MPA) as control compound. The cytotoxicity effect of the test compounds was also evaluated in the same cell line by MTT method. Antiviral effect and cytotoxicity effect were summarized as EC50 and CC50 respectively, as well as the selective index (SI) which is the ratio of CC50 to EC50. The stability of quercetin-3-O-ester compounds were also tested in the same buffer as the antiviral activity assay at 37 °C and the hydrolysate was measured by HPLC.
The biological assays were performed following a previously reported procedure. The Huh7.5.1 cell line and the HCV infectious virus J399EM were kindly provided by Xin-Wen Chen, Wuhan Institute of Virology, Chinese Academy of Sciences. Huh7.5.1 cells were cultured in Dulbecco’s modified Eagle’s medium (DMEM) containing 10% (v/v) fetal bovine serum, 0.5 mg/mL G418, 100 IU/mL penicillin, and […].
J399EM is an infectious HCV virus derived from the JFH1 virus (genotype 2a) by insertion of enhanced green fluorescent protein (EGFP) into the HCV NS5A region. The establishment of the infectious J399EM HCV virus has been described previously. J399EM was propagated in Huh7.5.1 cells. Briefly, Huh7.5.1 cells were infected with J399EM at MOI = 0.1 and cultured for 4 days. Culture supernatant was collected and filtered through a 0.45 μm membrane and stored at −80 °C as virus stock. Virus titer was tested in Huh7.5.1 cells. Stocks were serially diluted, and the foci forming units (FFU) were determined as the number of fluorescent colonies formed in infected Huh7.5.1.
All the compounds were first dissolved in DMSO at 50 mM, and then diluted to various concentrations (50 μM, 25 μM, 12.5 μM, 6.3 μM and 3.1 μM). Approximately 1 × 10^4 Huh7.5.1 cells per well were plated in an opaque 96-well tissue culture plate (Costar 3904). The next day, the medium was replaced by J399EM virus at an MOI of 0.3. Four hours later, the virus inoculum was removed and medium containing different concentrations of compounds was added. After an additional 72 h of incubation, the culture medium was removed and the EGFP autofluorescence was measured by using a […] with excitation at 488 nm and emission at 516 nm. Compounds and controls were performed in duplicate and each experiment repeated independently at least twice.

[2] = Cell viability / cytotoxicity by MTT method; assay type: cell-based; conditions: human
Protocol: as §1
After the EGFP signal was read, cell viability was measured in the same plate by the MTT [3-(4,5-dimethylthiazol-2-yl)-2,5-diphenyltetrazolium bromide; Sigma-Aldrich, St. Louis, MO, USA] method. Briefly, MTT (1 mg/mL) was dissolved in PBS. Cell culture supernatants were removed and replaced with MTT and further cultured for 4 h; cells were then lysed with 10% sodium dodecyl sulfate (SDS), 50% N,N-dimethylformamide, pH 7.2. OD570 values were read. The percentage of cell death was calculated against the control well without compounds.

SMILES	EC50 [1]	SI (selectivity index) [1]	CC50 [2]	melting point	CC50 ([2]; Huh7.5.1 cells, MTT, concentration required to reduce cell proliferation by 50%, average of duplicate determinations, read-out: CC50)
O=c1c(O)c(-c2ccc(O)c(O)c2)oc2cc(OCc3ccccc3)cc(O)c12 [Compound 3a, 7-(Benzyloxy)-2-(3,4-dihydroxyphenyl)-3,5-dihydroxy-4H-chromen-4-one]	8.7 ± 0.2 µM	>5.8	> 50 µM	255 to 257 °C	
O=c1c(O)c(-c2ccc(O)c(O)c2)oc2cc(OCc3ccccc3F)cc(O)c12 [Compound 3b, 2-(3,4-Dihydroxyphenyl)-7-((2-fluorobenzyl)oxy)-3,5-dihydroxy-4H-chromen-4-one]	5 ± 0.1 µM	3.1	15.4 ± 0.1 µM	254 to 255 °C	
O=c1c(O)c(-c2ccc(O)c(O)c2)oc2cc(OCc3ccccc3Cl)cc(O)c12 [Compound 3c, 7-((2-Chlorobenzyl)oxy)-2-(3,4-dihydroxyphenyl)-3,5-dihydroxy-4H-chromen-4-one]	4.8 ± 0.1 µM	7.7	36.7 ± 0.7 µM	253 to 254 °C	
O=c1c(O)c(-c2ccc(O)c(O)c2)oc2cc(OCc3ccccc3Br)cc(O)c12 [Compound 3d, 7-((2-Bromobenzyl)oxy)-2-(3,4-dihydroxyphenyl)-3,5-dihydroxy-4H-chromen-4-one]	5.5 ± 0.2 µM	6.8	37.4 ± 0.8 µM	248 to 249 °C	
Cc1ccccc1COc1cc(O)c2c(=O)c(O)c(-c3ccc(O)c(O)c3)oc2c1 [Compound 3e, 2-(3,4-Dihydroxyphenyl)-3,5-dihydroxy-7-((2-methylbenzyl)oxy)-4H-chromen-4-one]	4.9 ± 0.6 µM	4.4	21.7 ± 1.4 µM	241 to 242 °C	
N#Cc1ccccc1COc1cc(O)c2c(=O)c(O)c(-c3ccc(O)c(O)c3)oc2c1 [Compound 3f, 2-(((2-(3,4-Dihydroxyphenyl)-3,5-dihydroxy-4-oxo-4H-chromen-7-yl)oxy)methyl)benzonitrile]	7.5 ± 0.5 µM	1.7	12.6 ± 0.1 µM	248 to 249 °C	
O=c1c(O)c(-c2ccc(O)c(O)c2)oc2cc(OCc3ccccc3[N+](=O)[O-])cc(O)c12 [Compound 3g, 2-(3,4-Dihydroxyphenyl)-3,5-dihydroxy-7-((2-nitrobenzyl)oxy)-4H-chromen-4-one]	7 ± 1.1 µM	2.1	14.6 ± 0.5 µM	260 to 261 °C	
O=c1c(O)c(-c2ccc(O)c(O)c2)oc2cc(OCc3cccc(F)c3)cc(O)c12 [Compound 3h, 2-(3,4-Dihydroxyphenyl)-7-((3-fluorobenzyl)oxy)-3,5-dihydroxy-4H-chromen-4-one]	6.3 ± 0.2 µM		44.5 ± 3.7 µM	243 to 245 °C	
O=c1c(O)c(-c2ccc(O)c(O)c2)oc2cc(OCc3cccc(Cl)c3)cc(O)c12 [Compound 3i, 7-((3-Chlorobenzyl)oxy)-2-(3,4-dihydroxyphenyl)-3,5-dihydroxy-4H-chromen-4-one]	3.8 ± 0.2 µM	7.2	27.2 ± 0.2 µM	260 to 261 °C	
O=c1c(O)c(-c2ccc(O)c(O)c2)oc2cc(OCc3cccc(Br)c3)cc(O)c12 [Compound 3j, 7-((3-Bromobenzyl)oxy)-2-(3,4-dihydroxyphenyl)-3,5-dihydroxy-4H-chromen-4-one]	4.1 ± 0.3 µM	5.4	22.3 ± 1.2 µM	234 to 236 °C	
Cc1cccc(COc2cc(O)c3c(=O)c(O)c(-c4ccc(O)c(O)c4)oc3c2)c1 [Compound 3k, 2-(3,4-Dihydroxyphenyl)-3,5-dihydroxy-7-((3-methylbenzyl)oxy)-4H-chromen-4-one]	4.7 ± 0.4 µM	6.9	32.5 ± 0.7 µM	224 to 226 °C	
N#Cc1cccc(COc2cc(O)c3c(=O)c(O)c(-c4ccc(O)c(O)c4)oc3c2)c1 [Compound 3l, 3-(((2-(3,4-Dihydroxyphenyl)-3,5-dihydroxy-4-oxo-4H-chromen-7-yl)oxy)methyl)benzonitrile]	5.4 ± 0.5 µM	2.0			10.6 ± 0.5 µM
O=c1c(O)c(-c2ccc(O)c(O)c2)oc2cc(OCc3cccc([N+](=O)[O-])c3)cc(O)c12 [Compound 3m, 2-(3,4-Dihydroxyphenyl)-3,5-dihydroxy-7-((3-nitrobenzyl)oxy)-4H-chromen-4-one]	6.6 ± 1.1 µM	2.3	15 ± 0.1 µM	264 to 266 °C	
O=c1c(O)c(-c2ccc(O)c(O)c2)oc2cc(OCc3ccc(F)cc3)cc(O)c12 [Compound 3n, 2-(3,4-Dihydroxyphenyl)-7-((4-fluorobenzyl)oxy)-3,5-dihydroxy-4H-chromen-4-one]	5.1 ± 0.5 µM	6.2	31.9 ± 3.4 µM	254 to 255 °C	
O=c1c(O)c(-c2ccc(O)c(O)c2)oc2cc(OCc3ccc(Cl)cc3)cc(O)c12 [Compound 3o, 7-((4-Chlorobenzyl)oxy)-2-(3,4-dihydroxyphenyl)-3,5-dihydroxy-4H-chromen-4-one]	3.9 ± 0.3 µM	3.9	15.1 ± 0.1 µM	266 to 267 °C	
O=c1c(O)c(-c2ccc(O)c(O)c2)oc2cc(OCc3ccc(Br)cc3)cc(O)c12 [Compound 3p, 7-((4-Bromobenzyl)oxy)-2-(3,4-dihydroxyphenyl)-3,5-dihydroxy-4H-chromen-4-one]	5.5 ± 1.5 µM	6.4	35.4 ± 1.6 µM	256 to 257 °C	
Cc1ccc(COc2cc(O)c3c(=O)c(O)c(-c4ccc(O)c(O)c4)oc3c2)cc1 [Compound 3q, 2-(3,4-Dihydroxyphenyl)-3,5-dihydroxy-7-((4-methylbenzyl)oxy)-4H-chromen-4-one]	6.7 ± 1.4 µM	2.4	15.9 ± 1 µM	261 to 264 °C	
N#Cc1ccc(COc2cc(O)c3c(=O)c(O)c(-c4ccc(O)c(O)c4)oc3c2)cc1 [Compound 3r, 4-(((2-(3,4-Dihydroxyphenyl)-3,5-dihydroxy-4-oxo-4H-chromen-7-yl)oxy)methyl)benzonitrile]	6.2 ± 0.2 µM	1.6	10.1 ± 0.1 µM	252 to 254 °C	
O=c1c(O)c(-c2ccc(O)c(O)c2)oc2cc(OCc3ccc([N+](=O)[O-])cc3)cc(O)c12 [Compound 3s, 2-(3,4-Dihydroxyphenyl)-3,5-dihydroxy-7-((4-nitrobenzyl)oxy)-4H-chromen-4-one]	4.3 ± 0.2 µM	4.5	19.6 ± 0.2 µM	253.5 to 254.5 °C	
O=C(Oc1c(-c2ccc(O)c(O)c2)oc2cc(O)cc(O)c2c1=O)c1ccccc1 [Compound 4a, 2-(3,4-Dihydroxyphenyl)-5,7-dihydroxy-4-oxo-4H-chromen-3-yl benzoate]	14.3 ± 5.1 µM	>3.5	> 50 µM	173 to 174 °C	
O=C(Oc1c(-c2ccc(O)c(O)c2)oc2cc(O)cc(O)c2c1=O)c1ccccc1F [Compound 4b, 2-(3,4-Dihydroxyphenyl)-5,7-dihydroxy-4-oxo-4H-chromen-3-yl 2-fluorobenzoate]	12.9 ± 3.2 µM	>3.9	> 50 µM	186 to 187 °C	
COc1c(-c2ccc(O)c(O)c2)oc2cc(O)cc(O)c2c1=O [Compound 12a, 2-(3,4-Dihydroxyphenyl)-5,7-dihydroxy-3-methoxy-4H-chromen-4-one]	11.2 ± 0.1 µM	>4.5	> 50 µM		
O=c1c(OCCO)c(-c2ccc(O)c(O)c2)oc2cc(O)cc(O)c12 [Compound 12c, 2-(3,4-Dihydroxyphenyl)-5,7-dihydroxy-3-(2-hydroxyethoxy)-4H-chromen-4-one]	26.3 ± 3.1 µM	>1.9	> 50 µM		
